We go through 43 compounds from patent US11414384B2, “P300/CBP hat inhibitors” (Constellation Pharmaceuticals, Inc., priority 2018, dated 2022).

For orientation: IC50 means the concentration at which inhibition is half-maximal. In general, EC50 refers to the concentration that produces a half-maximal response. A lower EC50 goes with greater potency.

The target in experiment [1] is p300 HAT domain (residues 1287-1666) (Homo sapiens (Human), UniProt Q09472). Put plainly: p300 HAT SPA assay (scintillation proximity assay, acetylation of biotinylated H3(1-21) peptide). In kind it is biochemical. Conditions: p300 HAT domain; average of at least 2 replicate titrations; read-out: P300 HAT SPA IC50. In short, it runs like this:
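Purified p300 HAT domain reaction transferred to streptavidin plates to capture biotinylated H3(1-21) peptide, incubated 1.5 hr at RT, and read by scintillation proximity. IC50 values derived from concentration-response data.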
Background: Scintillation proximity formats need no separation of bound from free tracer.

For experiment [2], the system named is acetylation of chromatin at H3K18 (catalyzed by p300 and CBP) in HCT-116 cells. Put plainly: H3K18Ac MSD cellular assay. In kind it is cell-based. The conditions noted are these: 2 hr treatment, average of at least 2 replicate titrations. How it is done:
Select compounds were also evaluated in a H3K18Ac MSD cellular assay that measures the ability of compounds to inhibit the acetylation of chromatin at H3K18, a process catalyzed by p300 and CBP. In a typical experiment the p300 HAT inhibitory activity inside cells of the compounds described herein was determined in accordance with the following experimental method. 20 k HCT-116 cells per well are plated in 75 μL RPMI+10% FBS media the night before treatment. Compounds plated in DMSO at 4× final concentration are resuspended in 30 μL RPMI+10% FBS, then 25 μL is combined with corresponding wells containing cells. Treated cells are incubated for 2 hr at 37° C., then lysed in 500 μL final volume and frozen at −80° C. MSD plates (Meso Scale Discovery) are coated overnight at 4° C. with 60 μL 1:500α-total histone antibody (Millipore MAB3422) in PBS. Plates are then blocked with 5% BSA in TBST shaking at RT for 1 hr, washed, and 30 μL lysate added to each well for 2 hr shaking at RT. Plates are washed and 25 μL 1:216α-H3K18ac antibody (CST 9675) in PBS added, then incubated for 1 hr shaking at RT. Plates are washed again, then 25 μL 1:1000 Sulfo-Tag goat a-rabbit antibody (Meso Scale Discovery R32Ab-1) in PBS is added for 1 hr shaking at RT. Plates are washed once more, then 150 μL 1× Read Buffer (MSD #R92TD-3) is added to all wells and read on MSD SECTOR Imager 2400 using the conventional read setup.

Chain of p300 HAT domain (residues 1287-1666) (Q09472 1287-1666): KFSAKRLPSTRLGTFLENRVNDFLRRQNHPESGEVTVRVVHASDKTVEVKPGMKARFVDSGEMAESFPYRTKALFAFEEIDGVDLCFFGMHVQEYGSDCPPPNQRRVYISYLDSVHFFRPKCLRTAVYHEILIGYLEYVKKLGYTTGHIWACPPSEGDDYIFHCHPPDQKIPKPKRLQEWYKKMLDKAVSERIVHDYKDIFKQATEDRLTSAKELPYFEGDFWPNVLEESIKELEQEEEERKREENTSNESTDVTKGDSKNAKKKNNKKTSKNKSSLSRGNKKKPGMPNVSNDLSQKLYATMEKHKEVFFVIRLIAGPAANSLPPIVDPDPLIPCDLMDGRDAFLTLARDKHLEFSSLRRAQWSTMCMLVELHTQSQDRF

Regarding `O=C(c1c[nH]c2ccccc12)C(NCCc1ccc(Cl)cc1Cl)c1ccccc1` (single isomer, unassigned) [19 Isomer 2], in experiment [1], the concentration for half-maximal inhibition (IC50) was determined as 0.706 µM. Further, the EC50 in experiment [2] (Homo sapiens, HCT-116, 2 h) is 0.282 µM. As for `CC(CNC(C(=O)c1c[nH]c2ccccc12)c1ccccc1)c1ccc(Cl)cc1` (single isomer, unassigned) [26 Isomer 1], the IC50 in experiment [1] is > 30 µM. Moreover, in experiment [2], the EC50 is > 10 µM.

Turning to `CC(CNC(C(=O)c1c[nH]c2ccccc12)c1ccccc1)c1ccc(Cl)cc1` (single isomer, unassigned) [26 Isomer 2], in experiment [1], the IC50 turned out to be 4.56 µM. The response in experiment [2] was half-maximal at 2.53 µM (EC50). For the compound `CC(CNC(C(=O)c1c[nH]c2ccccc12)c1ccccc1)c1ccc(Cl)cc1` (single isomer, unassigned) [26 Isomer 3], in experiment [1], the half-maximal inhibitory concentration (IC50) amounted to 3.79 µM. In experiment [2], the midpoint of the response, the EC50, lay at 6.11 µM. In the same order, the values of `CC(CNC(C(=O)c1c[nH]c2ccccc12)c1ccccc1)c1ccc(Cl)cc1` (single isomer, unassigned) [26 Isomer 4] are 0.204 µM and 0.139 µM.

Take `CC(Cc1ccc(Cl)cc1)NC(C(=O)c1c[nH]c2ccccc12)c1ccccc1` (single isomer, unassigned) [27 Isomer 1]: the IC50 in experiment [1] was determined as 0.636 µM. Also, in experiment [2] (Homo sapiens, HCT-116, 2 h), the EC50 is 0.681 µM. The matching figures for `Cc1ccc(CCNC(C(=O)c2c[nH]c3ccccc23)c2ccccc2)cc1` (single isomer, unassigned) [38 Isomer 2]: 0.698 µM and 1.69 µM.

For the compound `O=C(c1c[nH]c2ccccc12)C(NCCc1ccc(OC(F)(F)F)cc1)c1ccccc1` (single isomer, unassigned) [40 Isomer 2], in experiment [1], the IC50 was 1.31 µM. This compound also yielded an EC50 in experiment [2] (Homo sapiens, HCT-116, 2 h) of 4.01 µM. For the compound `Cc1ccc2c(C(=O)C(NCCc3ccc(F)cc3)c3ccccc3)c[nH]c2c1` (single isomer, unassigned) [48 Isomer 2], in experiment [1], the IC50 is 3.34 µM. Also, a half-maximal effect in experiment [2] (Homo sapiens, HCT-116, 2 h) (EC50) was put at 3.2 µM. In the same order, the values of `CCNc1ccc(CCNC(C(=O)c2c[nH]c3ccccc23)c2ccccc2)cn1` (single isomer, unassigned) [53 Isomer 2] are 4.29 µM and 3.47 µM. The matching figures for `Cc1ccc2c(C(=O)C(NCCc3ccc(S(N)(=O)=O)cc3)c3ccccc3)c[nH]c2c1` (single isomer, unassigned) [56 Isomer 2]: 3.1 µM and 1.44 µM.

As for `N#Cc1ccc(CCNC(C(=O)c2c[nH]c3ccccc23)c2ccccc2)cc1` (single isomer, unassigned) [58 Isomer 2], the IC50 in experiment [1] turned out to be 0.201 µM. Besides, in experiment [2] (Homo sapiens, HCT-116, 2 h), the EC50 came to 0.477 µM. `Cn1cc(-c2ccc3c(C(=O)C(NCCc4ccc(C#N)cc4)c4ccccc4)cnn3c2)cn1` (single isomer, unassigned) [79 Isomer 1] returned an EC50 in experiment [2] of 0.366 µM. In experiment [2], `Cn1cc(-c2ccc3c(C(=O)C(NCCc4ccc(C#N)cc4)c4ccccc4)cnn3c2)cn1` (single isomer, unassigned) [79 Isomer 2] returned an EC50 of 0.06 µM. For the compound `Cn1cc(-c2ccc3c(C(=O)C(NCCc4ccc(C#N)cc4)c4ccccc4)c[nH]c3c2)cn1` (single isomer, unassigned) [84 Isomer 2], in experiment [2] (Homo sapiens, HCT-116, 2 h), the EC50 was found to be 0.0375 µM. In the case of `C[C@@H](NC(=O)c1ccc2c(C(=O)C(NCCc3ccc(C#N)cc3)c3ccccc3)c[nH]c2c1)C(F)(F)F` (single isomer, unassigned) [170 Isomer 2], the IC50 in experiment [1] is 4.11 µM. Consider `N#Cc1ccc(CCNC(C(=O)c2c[nH]c3cc(C(=O)N4CCCC4)ccc23)c2ccccc2)cc1` (single isomer, unassigned) [171 Isomer 1], for which the IC50 in experiment [1] was > 5 µM.

On to `N#Cc1ccc(CCNC(C(=O)c2c[nH]c3cc(C(=O)N4CCCC4)ccc23)c2ccccc2)cc1` (single isomer, unassigned) [171 Isomer 2], for which the IC50 in experiment [1] turned out to be 0.932 µM. On the same count and under the same terms, in the case of `CN(C)C(=O)c1ccc2c(C(=O)C(NCCc3ccc(C#N)cc3)c3ccccc3)c[nH]c2c1` (single isomer, unassigned) [172 Isomer 1] it was 4.24 µM; in that of `CN(C)C(=O)c1ccc2c(C(=O)C(NCCc3ccc(C#N)cc3)c3ccccc3)c[nH]c2c1` (single isomer, unassigned) [172 Isomer 2], 0.657 µM. Still for that read-out and setting: the figure for `C[C@@H](O)CNC(=O)c1ccc2c(C(=O)C(NCCc3ccc(C#N)cc3)c3ccccc3)c[nH]c2c1` (single isomer, unassigned) [173 Isomer 1] is 1.7 µM; for `C[C@@H](O)CNC(=O)c1ccc2c(C(=O)C(NCCc3ccc(C#N)cc3)c3ccccc3)c[nH]c2c1` (single isomer, unassigned) [173 Isomer 2] it is 0.0211 µM. Consider `CS(=O)(=O)CCCNC(=O)c1ccc2c(C(=O)C(NCCc3ccc(C#N)cc3)c3ccccc3)c[nH]c2c1` (single isomer, unassigned) [175 Isomer 1], for which, in experiment [1], the IC50 is 0.917 µM. For `N#Cc1ccc(CCNC(C(=O)c2c[nH]c3cc(C(=O)NCCN4CCCC4)ccc23)c2ccccc2)cc1` (single isomer, unassigned) [176 Isomer 1], the 50% inhibitory concentration (IC50) in experiment [1] worked out at 0.0538 µM. `N#Cc1ccc(CCNC(C(=O)c2c[nH]c3cc(C(=O)NCCN4CCCC4)ccc23)c2ccccc2)cc1` (single isomer, unassigned) [176 Isomer 2]: the IC50 in experiment [1] came out at 1.11 µM. Same read-out and setting: the figure for `Cn1cnc(-c2ccc3c(C(=O)[C@@H](NCCc4ccc(C(N)=O)cc4)c4ccccc4)c[nH]c3c2)c1` (single isomer, unassigned) [177 Isomer 1] is > 5 µM. On the same count and under the same terms, in the case of `CN1CCC(c2ccc3c(C(=O)C(NCCc4ccc(C(N)=O)cc4)c4ccccc4)c[nH]c3c2)CC1` (single isomer, unassigned) [178 Isomer 1] it was > 5 µM; in that of `CN1CCC(c2ccc3c(C(=O)C(NCCc4ccc(C(N)=O)cc4)c4ccccc4)c[nH]c3c2)CC1` (single isomer, unassigned) [178 Isomer 2], 2.07 µM. Same read-out and setting: in the case of `Cn1cc(-c2ccc3c(C(=O)C(NCCc4ccc(C(N)=O)cc4)c4ccccc4)cnn3c2)cn1` (single isomer, unassigned) [179 Isomer 2] it was 0.248 µM; in that of `Cn1cc(-c2ccc3c(C(=O)C(NCCc4ccc(C(N)=O)cc4)c4ccccc4)c[nH]c3c2)nn1` (single isomer, unassigned) [180 Isomer 1], 4.33 µM. As for `NC(=O)c1ccc(CCNC(C(=O)c2c[nH]c3cc(-n4ccnc4)ccc23)c2ccccc2)cc1` (single isomer, unassigned) [181 Isomer 2], in experiment [1], the IC50 was > 5 µM. Same read-out and setting: in the case of `NC(=O)c1ccc(CCNC(C(=O)c2c[nH]c3cc(-c4cnn(CCO)c4)ccc23)c2ccccc2)cc1` (single isomer, unassigned) [182 Isomer 1] it was > 5 µM. Still for that read-out and setting: the figure for `NC(=O)c1ccc(CCNC(C(=O)c2c[nH]c3cc(-c4cnn(CCO)c4)ccc23)c2ccccc2)cc1` (single isomer, unassigned) [182 Isomer 2] is 0.514 µM; for `COCCn1cc(-c2ccc3c(C(=O)C(NCCc4ccc(C(N)=O)cc4)c4ccccc4)c[nH]c3c2)cn1` (single isomer, unassigned) [183 Isomer 1] it is > 5 µM; for `COCCn1cc(-c2ccc3c(C(=O)C(NCCc4ccc(C(N)=O)cc4)c4ccccc4)c[nH]c3c2)cn1` (single isomer, unassigned) [183 Isomer 2] it is 0.717 µM. On the same count and under the same terms, in the case of `Cc1nc(C(=O)C(NCCc2ccc(C(N)=O)cc2)c2ccccc2)c2ccc(-c3cnn(C)c3)cn12` (single isomer, unassigned) [184 Isomer 1] it was 0.672 µM; in that of `Cc1nc(C(=O)C(NCCc2ccc(C(N)=O)cc2)c2ccccc2)c2ccc(-c3cnn(C)c3)cn12` (single isomer, unassigned) [184 Isomer 2], 0.522 µM. For `O=C(c1c[nH]c2ccccc12)[C@@H](NCCc1ccc(-c2nn[nH]n2)cc1)c1ccccc1` (single isomer, unassigned) [185 Isomer 1], in experiment [1], the IC50 was determined as 1.1 µM. Same read-out and setting: in the case of `O=C(c1c[nH]c2ccccc12)[C@@H](NCCc1ccc(-c2nn[nH]n2)cc1)c1ccccc1` (single isomer, unassigned) [185 Isomer 2] it was > 30 µM; in that of `O=C(c1c[nH]c2ccccc12)[C@@H](NCCc1ccc(-c2nnc[nH]2)cc1)c1ccccc1` (single isomer, unassigned) [186 Isomer 1], 1.97 µM. Still for that read-out and setting: in the case of `O=C(c1c[nH]c2ccccc12)[C@@H](NCCc1ccc(-c2nnc[nH]2)cc1)c1ccccc1` (single isomer, unassigned) [186 Isomer 2] it was 3.54 µM; in that of `Cn1cc(-c2ccc3c(C(=O)[C@@H](NCCc4ccc(N)nc4)c4ccccc4)c[nH]c3c2)cn1` (single isomer, unassigned) [187 Isomer 1], > 5 µM.

For the compound `Cn1cc(-c2ccc3c(C(=O)[C@@H](NCCc4ccc(N)nc4)c4ccccc4)c[nH]c3c2)cn1` (single isomer, unassigned) [187 Isomer 2], the IC50 in experiment [1] stood at 0.793 µM.
